test system: Nucleic Acid; assay: Binding constant were determined from viscometric titrations with closed circular superhelical DNA

Structure (SMILES)	K app
CN(C)CCCNc1c2ccc(Cl)cc2nc2ccc(Cl)cc12	160000
Cc1ccc2nc3cc(Cl)ccc3c(NCCCN(C)C)c2c1	290000
CN(C)CCCNc1c2ccc(Cl)cc2nc2ccc(F)cc12	160000
CSc1ccc2nc3cc(Cl)ccc3c(NCCCN(C)C)c2c1	200000
COc1ccc2nc3cc(Cl)ccc3c(NCCCN(C)C)c2c1	210000
CN(C)CCCNc1c2ccccc2nc2cc(Cl)ccc12	130000

Source: ChEMBL document CHEMBL1123147, “The intercalation of 6-chloro-substituted-9-[[3-(dimethylamino)propyl]amino]acridines with DNA” (J Med Chem, 1985)
